Where two headings read alike, the source gives them in different places.
Tests used:
[1] = human, in vivo
[2] = system: BetaCoV/Belgium/GHB-03021/2020; conditions: cited from earlier work
[3] = system: WA1; set-up: method as in Pitts et al[4]; conditions: A549-ACE2-TMPRSS, Nucleoprotein ELISA, ref Pitts et al[4]; cited from earlier work
[4] = system: Delta; conditions: A549-ACE2-TMPRSS, Nucleoprotein ELISA, ref Pitts et al[4]; cited from earlier work
[5] = system: Omicron; conditions: A549-ACE2-TMPRSS, Nucleoprotein ELISA, ref Pitts et al[4]; cited from earlier work
[6] = system: Omicron/BA.2; set-up: method as in Takashita et al[5]; conditions: Vero E6, Focus reduction, ref Takashita et al[5]; cited from earlier work
[7] = clinical; conditions: human, in vivo
[8] = system: plasma protein; conditions: cited from earlier work
[9] = plasma samples; cited from earlier work
[10] = system: nCoV-2019BetaCoV/Wuhan/WIV04/2019; conditions: cited from earlier work
[11] = system: BetaCoV/France/IDF0571/2020; conditions: cited from earlier work
[12] = human, in vivo; cited from earlier work

N#C[C@@]1(c2ccc3c(N)ncnn23)O[C@H](CO)[C@@H](O)[C@H]1O [GS-441524]
Age effect on V, bootstrap median [1]: –1.18 | Age effect on V, final model mean [1]: –1.15 | V/fm, bootstrap median [1]: 429 L | V/fm, final model mean [1]: 429 L | eGFR effect on CL, bootstrap median [1]: 1.23 | eGFR effect on CL, final model mean [1]: 1.12 | EC50 [2]: 510 nM | EC50 [3]: 5600 nM | EC50 [4]: 3260 nM | EC50 [5]: 3150 nM | EC50 [6]: 2850 nM | clearance ([7]; CL/fm, bootstrap median): 267 mL/min | clearance ([7]; CL/fm, final model mean): 265 mL/min | protein binding [8]: 2% | stable at room temperature [9]: 48 h

CCC(CC)COC(=O)[C@H](C)N[P@](=O)(OC[C@H]1O[C@@](C#N)(c2ccc3c(N)ncnn23)[C@H](O)[C@@H]1O)Oc1ccccc1 [Remdesivir, reference compound]
V, bootstrap median [1]: 111 L | EC50 [10]: 770 nM | EC90 [10]: 1760 nM | EC50 [11]: 990 nM | EC50 [2]: 48 nM | EC50 [4]: 70 nM | EC50 [5]: 42 nM | clearance ([7]; CL, bootstrap median): 1670 mL/min | clearance ([7]; iv, CL, final model mean): 1600 mL/min | clearance [12]: 207 L/h | protein binding ([8]; human): 97%

— PMC12064607 (Clinical Pharmacokinetics, 2025)
